Reference: patent US20260355129A1, “5-HT2C AGONISTS FOR TREATING PRADER-WILLI SYNDROME (PWS), METABOLIC SYNDROMES, AND OTHER DISEASES AND DISORDERS” (Park City Bio, LLC, priority 2025, published 2026)

Tests used:
Type in all cases: cell-based
Details in all cases: HEK-293T, HEK293T, normalized to % 5-HT stimulation, class symbols (Table 5)
[1] = target: T1, 5-HT2A receptor (Homo sapiens, UniProt P28223); test: 5-HT2 receptor-mediated Gq activation, Gq/y1 dissociation by BRET, 5-HT2A
T1 construct: expressed in transfected cells; host or cells: HEK293T
T1 sequence (P28223 whole entry): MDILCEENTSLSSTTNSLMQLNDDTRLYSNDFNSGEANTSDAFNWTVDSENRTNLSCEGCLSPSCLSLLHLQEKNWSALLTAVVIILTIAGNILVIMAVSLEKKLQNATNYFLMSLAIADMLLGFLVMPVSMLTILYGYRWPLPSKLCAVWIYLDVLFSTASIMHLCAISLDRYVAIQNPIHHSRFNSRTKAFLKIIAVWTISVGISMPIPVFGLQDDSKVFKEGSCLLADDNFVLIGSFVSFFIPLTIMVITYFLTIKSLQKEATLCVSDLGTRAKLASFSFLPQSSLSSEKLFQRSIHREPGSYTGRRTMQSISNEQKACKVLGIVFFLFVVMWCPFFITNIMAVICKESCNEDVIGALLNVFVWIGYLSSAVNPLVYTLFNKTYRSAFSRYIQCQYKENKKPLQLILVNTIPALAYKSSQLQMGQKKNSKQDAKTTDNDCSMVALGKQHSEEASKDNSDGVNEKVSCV
Source text: (§1) To measure 5-HT2 receptor-mediated Gq activation via Gq/y1 dissociation as measured by Bioluminescence Resonance Energy Transfer (BRET) (McCorvy J D, Wacker D, Wang S, Agegnehu B, Liu J, Lansu K, Tribo A R, Olsen R H J, Che T, Jin J, Roth B L. Structural determinants of 5-HT2B receptor activation and biased agonism. Nat Struct Mo/Biol. 2018; 25(9): 787-96), HEK293T cells were sub-cultured in Dulbecco's Modified Eagle Medium (DMEM) supplemented with 10% dialyzed fetal bovine serum (FBS) and were co-transfected in a 1:1:1:1 ratio with Rluc8-fused human Gaq (Gaq-Rluc8), a GFP2-fused to the C-terminus of human Gy1(Gy1-GFP2), human G131, and 5-HT2 receptor using TransiT-2020. […] Substrate addition occurred 15 minutes before reading and utilized 10 μL of the Rluc substrate coelenterazine 400a for Gq dissociation BRET^2 (Prolume/Nanolight, 5 μM final concentration). Plates were read for luminescence at 400 nm and fluorescent GFP2 emission at 510 nm at 1 second per well using a Mithras LB940 multimode microplate reader (e.g. one provided by Berthold). The BRET ratios of fluorescence/luminescence were calculated per well and were plotted as a function of drug concentration using Graphpad Prism 8 (Graphpad Software Inc., San Diego, CA).

[2] = target: T2, 5-HT2C receptor (Homo sapiens, UniProt P28335); test: 5-HT2 receptor-mediated Gq activation, Gq/y1 dissociation by BRET, 5-HT2C
T2 construct: expressed in transfected cells; host or cells: HEK293T
T2 sequence (P28335 33-458): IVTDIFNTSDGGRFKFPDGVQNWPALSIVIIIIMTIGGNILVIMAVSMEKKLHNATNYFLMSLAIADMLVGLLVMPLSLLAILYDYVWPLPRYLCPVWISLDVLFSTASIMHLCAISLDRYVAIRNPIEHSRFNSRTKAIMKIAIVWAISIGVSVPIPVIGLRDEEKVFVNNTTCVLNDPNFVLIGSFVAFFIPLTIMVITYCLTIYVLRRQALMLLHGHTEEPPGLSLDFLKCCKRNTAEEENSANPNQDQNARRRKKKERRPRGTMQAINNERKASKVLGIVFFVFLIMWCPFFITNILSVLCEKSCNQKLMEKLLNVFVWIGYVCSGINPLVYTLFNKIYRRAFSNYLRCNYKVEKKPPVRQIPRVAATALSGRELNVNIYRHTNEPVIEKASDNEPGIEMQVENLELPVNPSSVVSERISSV
Source text: as §1

[3] = target: T3, 5-HT2B receptor (Homo sapiens, UniProt P41595); test: 5-HT2 receptor-mediated Gq activation, Gq/y1 dissociation by BRET, 5-HT2B
T3 construct: expressed in transfected cells; host or cells: HEK293T
T3 sequence (P41595 whole entry): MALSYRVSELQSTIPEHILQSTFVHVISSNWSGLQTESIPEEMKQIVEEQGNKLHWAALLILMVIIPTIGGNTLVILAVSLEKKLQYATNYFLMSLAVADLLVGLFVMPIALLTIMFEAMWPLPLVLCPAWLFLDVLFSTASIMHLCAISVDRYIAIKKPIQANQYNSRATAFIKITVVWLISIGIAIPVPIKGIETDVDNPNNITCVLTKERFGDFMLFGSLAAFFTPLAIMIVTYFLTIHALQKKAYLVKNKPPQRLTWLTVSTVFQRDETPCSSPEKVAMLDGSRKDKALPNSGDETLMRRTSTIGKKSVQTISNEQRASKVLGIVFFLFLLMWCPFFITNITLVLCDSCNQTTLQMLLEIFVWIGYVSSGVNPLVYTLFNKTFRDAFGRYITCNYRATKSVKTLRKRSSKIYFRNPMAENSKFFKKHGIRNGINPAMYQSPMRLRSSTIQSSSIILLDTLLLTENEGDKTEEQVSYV
Source text: as §1

| SMILES | Emax [1] [%] | Emax [2] [%] | Emax [3] [%] |
| --- | --- | --- | --- |
| CNCC1CC1c1cc(F)ccc1SC (centres unmarked) | 50 to 80 | 50 to 80 | – |
| CNC[C@H]1C[C@@H]1c1cc(F)ccc1OC | 50 to 80 | 50 to 80 | 50 to 80 |
